Laboratory results reported in the supplement of paper PMC10307832.

Assays:
Assay in all cases: relative viability (nuclei count vs DMSO), 5 days (fraction); higher = more cells survive
MLN4924 + Pictilisib = compound: NS(=O)(=O)OC[C@@H]1C[C@@H](n2ccc3c(N[C@H]4CCc5ccccc54)ncnc32)C[C@@H]1O [MLN4924] + CS(=O)(=O)N1CCN(Cc2cc3nc(-c4cccc5[nH]ncc45)nc(N4CCOCC4)c3s2)CC1 [Pictilisib] (partner 1 µM)
Outline: (§1)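 Relative viability divides the nuclei count in treated wells by that in vehicle wells. Lung cancer cell lines were seeded in 1536-well plates, dosed by pin tool the next day, and fixed and stained after 5 days in one step with final 0.05% Triton X-100, 1% formaldehyde and 1 ug/ml Hoechst. Dosing was a single drug or a fixed anchor-drug dose plus five library-drug doses (not always all listed) in √10 steps, and values are medians of duplicate plates imaged at 4×.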

Carboplatin + Pictilisib = compound: C1CC(C1)(C(=O)O)C(=O)O.[NH2-].[NH2-].[Pt+2] [Carboplatin] + CS(=O)(=O)N1CCN(Cc2cc3nc(-c4cccc5[nH]ncc45)nc(N4CCOCC4)c3s2)CC1 [Pictilisib] (partner 1 µM)
Outline: as §1

Carboplatin + Foretinib = compound: C1CC(C1)(C(=O)O)C(=O)O.[NH2-].[NH2-].[Pt+2] [Carboplatin] + COc1cc2c(Oc3ccc(NC(=O)C4(C(=O)Nc5ccc(F)cc5)CC4)cc3F)ccnc2cc1OCCCN1CCOCC1 [Foretinib] (partner 0.25 µM)
Outline: as §1

Carboplatin + Lapatinib = compound: C1CC(C1)(C(=O)O)C(=O)O.[NH2-].[NH2-].[Pt+2] [Carboplatin] + CS(=O)(=O)CCNCc1ccc(-c2ccc3ncnc(Nc4ccc(OCc5cccc(F)c5)c(Cl)c4)c3c2)o1 [Lapatinib] (partner 2 µM)
Outline: as §1

Work on UMC-11 yielded a relative viability (MLN4924 + Pictilisib; first compound 0.04 µM) of 0.593, a relative viability (MLN4924 + Pictilisib; first compound 0.1265 µM) of 0.357 and a relative viability (MLN4924 + Pictilisib; first compound 0.4 µM) of 0.267. It also gave a relative viability (MLN4924 + Pictilisib; first compound 1.265 µM) of 0.14, a relative viability (MLN4924 + Pictilisib; first compound 4 µM) of 0.14 and a relative viability (Carboplatin + Pictilisib; first compound 0.08 µM) of 0.779. It also gave a relative viability (Carboplatin + Pictilisib; first compound 0.253 µM) of 0.777, a relative viability (Carboplatin + Pictilisib; first compound 0.8 µM) of 0.76 and a relative viability (Carboplatin + Pictilisib; first compound 2.53 µM) of 0.78. It also gave a relative viability (Carboplatin + Pictilisib; first compound 8 µM) of 0.587, a relative viability (Carboplatin + Foretinib; first compound 0.08 µM) of 1.03 and a relative viability (Carboplatin + Foretinib; first compound 0.253 µM) of 1.03. For the same cell line, the relative viability (Carboplatin + Foretinib; first compound 0.8 µM) was 1.06, the relative viability (Carboplatin + Foretinib; first compound 2.53 µM) was 0.941 and the relative viability (Carboplatin + Foretinib; first compound 8 µM) was 0.718. For the same cell line, the relative viability (Carboplatin + Lapatinib; first compound 0.08 µM) was 1.01, the relative viability (Carboplatin + Lapatinib; first compound 0.253 µM) was 0.941 and the relative viability (Carboplatin + Lapatinib; first compound 0.8 µM) was 1.07. For the same cell line, the relative viability (Carboplatin + Lapatinib; first compound 2.53 µM) was 1.04 and the relative viability (Carboplatin + Lapatinib; first compound 8 µM) was 0.847.
